Laboratory results as given in the NIST ThermoML archive (doi:10.1021/je060271a).
“And” between values parts separate entries of the source, which are not always exact repeats. Equal values may be shown once. ± gives the expanded uncertainty stated by the source.

Details: Liquid, Vibrating tube method

CCCCCCC(=O)OCC(COC(=O)CCCCCC)(COC(=O)CCCCCC)COC(=O)CCCCCC [pentaerythritol tetraheptanoate]
Details | mass density
343.14 K, 22987 kPa | 957 ± 1.2 kg/m3
343.14 K, 23023 kPa | 956.9 ± 1.2 kg/m3
343.14 K, 23067 kPa | 956.9 ± 1.2 kg/m3
343.14 K, 23104 kPa | 956.9 ± 1.2 kg/m3
343.14 K, 23148 kPa | 957 ± 1.2 kg/m3
343.14 K, 23186 kPa | 957 ± 1.2 kg/m3
343.14 K, 23224 kPa | 956.9 ± 1.2 kg/m3
343.14 K, 23269 kPa | 957.1 ± 1.2 kg/m3
343.14 K, 23308 kPa | 957.1 ± 1.2 kg/m3
343.14 K, 23346 kPa | 957.1 ± 1.2 kg/m3
343.14 K, 23393 kPa | 957.2 ± 1.2 kg/m3
343.14 K, 23433 kPa | 957.2 ± 1.2 kg/m3
343.14 K, 23473 kPa | 957.2 ± 1.2 kg/m3
343.14 K, 23512 kPa | 957.2 ± 1.2 kg/m3
343.14 K, 23551 kPa | 957.3 ± 1.2 kg/m3
343.14 K, 23582 kPa | 957.3 ± 1.2 kg/m3
343.14 K, 23619 kPa | 957.3 ± 1.2 kg/m3
343.14 K, 23650 kPa | 957.2 ± 1.2 kg/m3
343.14 K, 23719 kPa | 957.3 ± 1.2 kg/m3
343.14 K, 23782 kPa | 957.3 ± 1.2 kg/m3
343.14 K, 23820 kPa | 957.3 ± 1.2 kg/m3
343.14 K, 23852 kPa | 957.4 ± 1.2 kg/m3
343.14 K, 23887 kPa | 957.4 ± 1.2 kg/m3
343.14 K, 23919 kPa | 957.4 ± 1.2 kg/m3
343.14 K, 23957 kPa | 957.4 ± 1.2 kg/m3
343.14 K, 23990 kPa | 957.4 ± 1.2 kg/m3
343.14 K, 24022 kPa | 957.6 ± 1.2 kg/m3
343.14 K, 24061 kPa | 957.7 ± 1.2 kg/m3
343.14 K, 24094 kPa | 957.5 ± 1.2 kg/m3
343.14 K, 24160 kPa | 957.5 ± 1.2 kg/m3
343.14 K, 24588 kPa | 957.9 ± 1.2 kg/m3
343.14 K, 24654 kPa | 957.9 ± 1.2 kg/m3
343.14 K, 24695 kPa | 958 ± 1.2 kg/m3
343.14 K, 24730 kPa | 958.1 ± 1.2 kg/m3
343.14 K, 24765 kPa | 958 ± 1.2 kg/m3
343.14 K, 24806 kPa | 958 ± 1.2 kg/m3
343.14 K, 24840 kPa | 958.1 ± 1.2 kg/m3
343.14 K, 25030 kPa | 958.1 ± 1.2 kg/m3
343.14 K, 25067 kPa | 958.2 ± 1.2 kg/m3
343.14 K, 25103 kPa | 958.2 ± 1.2 kg/m3
343.14 K, 25183 kPa | 958.1 ± 1.2 kg/m3
343.14 K, 25215 kPa | 958.2 ± 1.2 kg/m3
343.14 K, 25436 kPa | 958.5 ± 1.2 kg/m3
343.14 K, 25465 kPa | 958.5 ± 1.2 kg/m3
343.14 K, 25501 kPa | 958.5 ± 1.2 kg/m3
343.14 K, 26973 kPa | 959.4 ± 1.2 kg/m3
343.14 K, 27040 kPa | 959.4 ± 1.2 kg/m3
343.14 K, 27491 kPa | 959.6 ± 1.2 kg/m3
343.14 K, 27527 kPa | 959.7 ± 1.2 kg/m3
343.14 K, 27558 kPa | 959.9 ± 1.2 kg/m3
343.14 K, 27645 kPa | 960 ± 1.2 kg/m3
343.14 K, 27672 kPa | 959.9 ± 1.2 kg/m3
343.14 K, 27705 kPa | 959.9 ± 1.2 kg/m3
343.14 K, 27733 kPa | 959.9 ± 1.2 kg/m3
343.14 K, 27761 kPa | 959.9 ± 1.2 kg/m3
343.14 K, 27793 kPa | 959.9 ± 1.2 kg/m3
343.14 K, 27821 kPa | 959.9 ± 1.2 kg/m3
343.14 K, 27849 kPa | 960 ± 1.2 kg/m3
343.14 K, 27937 kPa | 960.1 ± 1.2 kg/m3
343.14 K, 27971 kPa | 960.1 ± 1.2 kg/m3
343.14 K, 27998 kPa | 960 ± 1.2 kg/m3
343.14 K, 28026 kPa | 960 ± 1.2 kg/m3
343.14 K, 28060 kPa | 960 ± 1.2 kg/m3
343.14 K, 28670 kPa | 960.5 ± 1.2 kg/m3
343.14 K, 28700 kPa | 960.4 ± 1.2 kg/m3
343.14 K, 29403 kPa | 960.9 ± 1.2 kg/m3
343.14 K, 33157 kPa | 963.2 ± 1.2 kg/m3
343.14 K, 33197 kPa | 963.3 ± 1.2 kg/m3
343.14 K, 33238 kPa | 963.2 ± 1.2 kg/m3
343.14 K, 33290 kPa | 963.2 ± 1.2 kg/m3
343.14 K, 33322 kPa | 963.3 ± 1.2 kg/m3
343.14 K, 33371 kPa | 963.3 ± 1.2 kg/m3
343.14 K, 33412 kPa | 963.3 ± 1.2 kg/m3
343.14 K, 33461 kPa | 963.4 ± 1.2 kg/m3
343.14 K, 33503 kPa | 963.4 ± 1.2 kg/m3
343.14 K, 33545 kPa | 963.5 ± 1.2 kg/m3
343.14 K, 33586 kPa | 963.4 ± 1.2 kg/m3
343.14 K, 33637 kPa | 963.5 ± 1.2 kg/m3
343.14 K, 33678 kPa | 963.7 ± 1.2 kg/m3
343.14 K, 33906 kPa | 963.6 ± 1.2 kg/m3
343.15 K, 100.4 kPa | 940.6 ± 1.1 kg/m3
343.15 K, 100.5 kPa | 940.6 ± 1.1 kg/m3
343.15 K, 100.7 kPa | 940.6 ± 1.1 kg/m3
343.15 K, 100.9 kPa | 940.6 ± 1.1 kg/m3
343.15 K, 102.6 kPa | 940.6 ± 1.1 kg/m3
343.15 K, 106.3 kPa | 940.6 ± 1.1 kg/m3
343.15 K, 108.5 kPa | 940.6 ± 1.1 kg/m3
343.15 K, 111.8 kPa | 940.7 ± 1.1 kg/m3
343.15 K, 116.3 kPa | 940.7 ± 1.1 kg/m3
343.15 K, 119.8 kPa | 940.6 ± 1.1 kg/m3
343.15 K, 124 kPa | 940.5 ± 1.1 kg/m3
343.15 K, 126.8 kPa | 940.6 ± 1.1 kg/m3
343.15 K, 129.2 kPa | 940.5 ± 1.2 kg/m3
343.15 K, 131.6 kPa | 940.6 ± 1.1 kg/m3
343.15 K, 133.4 kPa | 940.7 ± 1.1 kg/m3
343.15 K, 134.8 kPa | 940.8 ± 1.1 kg/m3
343.15 K, 135.3 kPa | 940.7 ± 1.1 kg/m3
343.15 K, 136.2 kPa | 940.6 ± 1.1 kg/m3
343.15 K, 136.7 kPa | 940.6 ± 1.1 kg/m3
343.15 K, 137.7 kPa | 940.7 ± 1.1 kg/m3
343.15 K, 138.6 kPa | 940.7 ± 1.1 kg/m3
343.15 K, 139.6 kPa | 940.7 ± 1.1 kg/m3
343.15 K, 140.5 kPa | 940.6 ± 1.1 kg/m3
343.15 K, 140.7 kPa | 940.8 ± 1.1 kg/m3 and 940.7 ± 1.1 kg/m3
343.15 K, 140.8 kPa | 940.6 ± 1.1 kg/m3
343.15 K, 141 kPa | 940.7 ± 1.1 kg/m3
343.15 K, 141.2 kPa | 940.6 ± 1.1 kg/m3
343.15 K, 141.5 kPa | 940.6 ± 1.1 kg/m3
343.15 K, 141.9 kPa | 940.7 ± 1.1 kg/m3
343.15 K, 142.4 kPa | 940.7 ± 1.1 kg/m3
343.15 K, 142.9 kPa | 940.6 ± 1.1 kg/m3
343.15 K, 143.1 kPa | 940.6 ± 1.1 kg/m3 and 940.7 ± 1.1 kg/m3
